Experimental data reported in patent US20180030537A1, “PUMA, A PRO-APOPTOTIC GENE, AS A NOVEL MOLECULAR BIOMARKER FOR TNFALPHA-INDUCED HUMAN ISLET DAMAGE” (CITY OF HOPE, priority 2010, published 2018).
“Also recorded” adds a separate entry of the source.

Tests used:
human islets [1] = experiment: IL-1β stimulation of single human islets, mRNA by RT-PCR; type: cell-based; settings: recombinant IL-1β up to 100 U/mL, up to 16 hours, n=1
Experimental: FIGS. 16A-D. IL-1β up-regulates PUMA mRNA in human islets. Single islets in sextuplicate were stimulated with or without recombinant IL-1β (0.10 and 100 U/mL) for up to 16 hours. FIG. 16A) PUMA, FIG. 16B) IL-8, FIG. 16C) endogenous IL-1B and FIG. 16D) endogenous TNF mRNA in islets were normalized by β actin (% ACTB) mRNA assessed by RT-PCR (n=1). IL-1β induced PUMA, IL-8, endogenous IL-1 and TNF in human islets.
In addition to TNF-α, the expression of PUMA was examined following stimulation with […]. […] alone stimulation induced PUMA, IL-8, TNF and IL1B mRNA within 4 hours. […] IL-1β-induced PUMA expression can also be explained through the NFκB pathway.

human islets [2] = experiment: Western blot of PUMA and phospho-p65 in cultured human islets; type: cell-based
Experimental: All data are presented as a mean±standard error.
In some experiments, islets were pre-incubated with 10 μM NFκB inhibitor; BAY11-7082 for 1 hour before cytokine stimulation. Islet cell lysis and western blot was performed as previously described (49).

[3] = children with new onset of T1DM; cited from earlier work
human islets [4] = experiment: Drug compound screening in single human islets: TNF-α induced PUMA, IL-8 and TNF mRNA; type: cell-based; settings: pre-incubation 1 hour, 10 μM (Etanercept 0.1 μg/mL), then 5 ng/mL TNF-α 4 hours, vs control (vehicle alone); for TNF-α induced up regulation of PUMA mRNA (% ACTB): FIG. 4A; for TNF-α induced up regulation of IL-8 mRNA (% ACTB): FIG. 4B; for TNF-α induced up regulation of endogenous TNF mRNA (% ACTB): FIG. 4C
Experimental: FIGS. 4A-C. PUMA, IL-8 and TNF-α are used as markers to screen drug compounds protecting islets from TNF-α stimulus. Single human islets in hextuplicate were pre-incubated with various drugs (all used at 10 μM except Etanercept (0.1μ/ml)) or solvent (DMSO) at 37° C. for 1 hour, followed by stimulation with or without 5 ng/ml of TNF-α for an additional 4 hours. FIG. 4A: PUMA and ACTB mRNA were quantified and the results are expressed as % ACTB (*p<0.05 vs. control islets with TNF-α). FIG. 4B: IL-8 was quantified and the results are expressed as % ACTB. FIG. 4C: Endogenous TNF-α was quantified and the results are expressed as % ACTB. Together, the results of FIGS. 4A-C show an example of a compound screening system using PUMA, IL-8 and TNF mRNA.
Human islets and acinar cells isolated for research use were obtained from the Southern California Islet Cell Resources (SC-ICR) Center, Beckman Research Institute of the City of Hope (Duarte, Calif.) 1 to 3 days after isolation. The donor age ranged from 18 to 67 (48±14) years and included both sexes. Islet preparations with >70% purity and >90% viability were used. The use of human islets and acinar cells in this study was approved by the Institutional Review Board of the City of Hope. For mRNA experiments, islets between 150 μm to 300 μm in diameter (medium size islet) were handpicked in hexuplicate by experienced personnel under a dissection microscope without staining. Each handpicked islet was cultured individually in a non-tissue culture treated 96 well plate (Sarstedt, Newton, N.C.) with a CMRL (Mediatech Inc., Holly Hill, Fla.) based serum-free medium, which is used to culture human islets for clinical transplantation. Islets were treated with or without recombinant human TNF-α (0, 1, 5, 50 ng/mL) and/or recombinant human IFNγ (0, 10, 100, 1000 U/mL) for up to 16 hours. For other islet experiments, 500 to 1000 islet equivalent (IEQ) were cultured (500 IEQ/mL of medium) in a Petri dish for up to 24 hours in the same condition described above unless otherwise specified. For acinar cell experiments, acinar cells were kept in islet culture medium at 4° C. immediately after the isolation and used within 24 hours. Aliquots of 5-10 acinar cell clusters in triplicates were cultured with islet culture medium with or without TNF-α for up to 16 hours. For drug compound screening experiments, islets were pre-incubated with Etanercept, FK506, Cyclosporine (CsA), Rapamycin, Imatinib mesylate, Janus Kinase (JAK) inhibitor or p38 inhibitor, SB203580, for 1 hour, and then 5 ng/mL TNF-α was added to the islet culture for 4 hours. All the compounds except Etanercept (0.1 μg/mL) were dissolved in dimethyl sulfoxide (DMSO) and used at a concentration of 10 μM (all compounds are gifts from Hitachi Chemical Research Center).
RNA purification and PCR was performed as described previously (32). Briefly, following culture, islets were transferred to a 96-well filter plate (Hitachi Chemical Research Center-HCR, Irvine, Calif.)(44) and 50 μL of Lysis Buffer (HCR) containing a cocktail of specific reverse primers was applied to each well. Poly(A)+mRNA isolation was performed using the Hem(A)+™ System (Hitachi Chemical Research Center, Irvine, Calif.). The resultant cell lysates were transferred to oligo(dT)-immobilized microplates (GenePlate, HCR) for poly(A)^+ mRNA purification (45). The cDNA was directly synthesized with 30 μL of solution in each well: specific primer-primed cDNA in the liquid phase and oligo(dT)-primed cDNA in the solid phase (44). The cDNA in the solution was diluted by adding 30 μL nuclease-free water, with 4 μL of the diluted cDNA used for SYBR Green PCR (BioRad, Hercules, Calif.) (46). Each gene was amplified individually. The cycle threshold (Ct) was determined using analytical software (SDS, Applied Biosystems, Foster City, Calif.). Differences in Ct between the target and control mRNA (ΔCt) are used to quantify the relative amount of each target, calculated as 2^−ΔCt. […]

NOD mice = settings: cited from earlier work
islets = settings: in vitro; cited from earlier work
human islets [5] = experiment: Cytokine stimulation of single human islets, mRNA quantification; type: cell-based; settings: TNF-α 1, 5, 50 ng/ml and/or IFNγ 10, 100, 1000 U/ml
Experimental: Single islets were stimulated with or without 50 ng/ml TNF-α for 16 hours. Each dot indicates the result of one islet lot tested in hextuplicate. The tests were performed using 4 different human islet lots. Bars indicate the mean of 4 lots. Each gene expression was normalized by ACTB (a gene encoding β actin), and the fold increase was calculated by dividing TNF-α treated islets by control islets (*p<0.01, n=4). […] FIGS. 8B-D) PUMA (FIG. 8B), IL-8 (FIG. 8C) and TNF-α (FIG. 8D) expression from single human islets (n=6) stimulated with 0 (open circles), 1 (solid triangles), 5 (solid squares) and 50 ng/ml (solid circles) TNF-α for 0, 1, 4, 16 hours in 3 independent cases. Dose dependent expression of (FIG. 8E) PUMA, (FIG. 8F) IL-8 and (FIG. 8G) TNF-α in human islet at the 4 hour time point (n=3). […] (FIG. 8K) PUMA and (FIG. 8L) IL-8 expression in human islets stimulated with or without TNF-α (1, 5, 50 ng/ml) and/or IFNγ (10, 100, 1000 U/ml) for 4 hours. […] All data are presented as a mean±standard error.
Human islets and acinar cells isolated for research use were obtained from the Southern California Islet Cell Resources (SC-ICR) Center, Beckman Research Institute of the City of Hope (Duarte, Calif.) 1 to 3 days after isolation. The donor age ranged from 18 to 67 (48±14) years and included both sexes. Islet preparations with >70% purity and >90% viability were used. […]

human islets [6] = experiment: Preproinsulin precursor mRNA synthesis and total insulin release of single human islets; type: cell-based; settings: 16 hours, high glucose; TNF-α 50 ng/mL; IFNγ 10-1000 U/ml; FIG. 3B, 3C
Experimental: FIG. 3B) The glucose induced newly synthesized preproinsulin precursor mRNA measured by pre-spliced preproinsulin mRNA normalized by pre- and post-spliced preproinsulin mRNA (% exon) in the corresponding islets with or without 50 ng/ml. TNF-α was also examined (n=3, *p<0.05). FIG. 3C) Glucose induced preproinsululin precursor mRNA synthesis with or without TNF-α (1, 5 and 50 ng/ml) and/or IFNγ (10, 100 and 1000 U/ml) from a single human islet in hextuplicate. […] All data are presented as a mean±standard error.
Hand picked human islets were cultured with 100 uL of RPMI 1640 medium containing 5% fetal bovine serum and either low-glucose (3.3 mmol/L) or high-glucose (17 mmol/L) for 16 hours. Preproinsulin mRNA synthesis was measured from the islets by the methods described above. Pre-spliced preproinsulin mRNA (preproinsulin precursor mRNA) was normalized by pre- and post-spliced preproinsulin mRNA as described previously (32).
The effect of TNF-α and/or IFN-γ on β cell function was examined by analyzing the ability of human islets to synthesize and release insulin. […] The dose dependent effect of TNF-α and/or IFN-γ on preproinsulin precursor mRNA synthesis was also examined.

IL-1β: recombinant IL-1β; cytokine stimulus
PUMA mRNA (% ACTB) in human islets (human islets [1]; FIG. 16A): induced; also recorded: returned to the normal level by 16 hours | IL-8 mRNA (% ACTB) in human islets (human islets [1]; FIG. 16B): induced | endogenous IL-1B mRNA (% ACTB) in human islets (human islets [1]; FIG. 16C): induced | endogenous TNF mRNA (% ACTB) in human islets (human islets [1]; FIG. 16D): induced

Cc1ccc(S(=O)(=O)/C=C/C#N)cc1 [BAY11-7082]
PUMA expression induced by the combination of TNF-α and IFNγ (western blot) (human islets [2]; 10 μM pre-incubation 1 hour, TNF-α 50 ng/ml + IFNγ 1000 U/ml, FIG. 2C): did not inhibit PUMA expression

Etanercept
HbA1C levels [3]: lowering HbA1C levels | endogenous insulin production [3]: increased levels of endogenous insulin production | TNF-α induced up regulation of PUMA mRNA (% ACTB) (human islets [4]): prevented TNF-α induced up regulation | TNF-α induced up regulation of IL-8 mRNA (% ACTB) (human islets [4]): prevented TNF-α induced up regulation | TNF-α induced up regulation of endogenous TNF mRNA (% ACTB) (human islets [4]): prevented TNF-α induced up regulation

Cc1ccc(NC(=O)c2ccc(CN3CCN(C)CC3)cc2)cc1Nc1nccc(-c2cccnc2)n1 [Imatinib]
spontaneous onset of diabetes (NOD mice): prevents the spontaneous onset of diabetes | TNF-α induced up regulation of PUMA mRNA (% ACTB) (human islets [4]): reduced the up regulation | TNF-α induced up regulation of IL-8 mRNA (% ACTB) (human islets [4]): reduced the up regulation | TNF-α induced up regulation of endogenous TNF mRNA (% ACTB) (human islets [4]): reduced the up regulation | protection of islets from combined cytokines (islets): protect islets from combined cytokines

B1: IFN-γ: recombinant human IFNγ, R&D Systems; cytokine stimulus (protein, UniProt P01579 24-161, looked up)
Interferon gamma: QDPYVKEAENLKKYFNAGHSDVADNGTLFLGILKNWKEESDRKIMQSQIVSFYFKLFKNFKDDQSIQKSVETIKEDMNVKFFNSNKKKRDDFEKLTNYSVTDLNVQRKAIHELIQVMAELSPAAKTGKRKRSQMLFRG
PUMA protein expression (western blot) (human islets [2]; TNF-α 50 ng/mL and/or IFN-γ 1000 U/mL, FIG. 2A): but not by IFN-γ (1000 U/mL) alone | PUMA mRNA expression in human islets (human islets [5]; 4 hours, FIG. 8K): did not induce PUMA | IL-8 mRNA expression in human islets (human islets [5]; FIG. 8C, 8F, 8L): did not induce IL-8 expression | glucose-induced preproinsulin precursor mRNA synthesis (human islets [6]): did not impair
